Results from patent US20230295197A1, “STAT5 and STAT6 Degraders and Uses Thereof” (REGENTS OF THE UNIVERSITY OF MICHICAN, priority 2022, published 2023).
Where two headings read alike, the source gives them in different places.

Molecular target: T1, STAT6 (Homo sapiens, UniProt P42226)
T1 construct: endogenous in cells; host or cells: MOLM-16, KU-812, SKNO1, MB231, L1236
T1 sequence (P42226 1-847): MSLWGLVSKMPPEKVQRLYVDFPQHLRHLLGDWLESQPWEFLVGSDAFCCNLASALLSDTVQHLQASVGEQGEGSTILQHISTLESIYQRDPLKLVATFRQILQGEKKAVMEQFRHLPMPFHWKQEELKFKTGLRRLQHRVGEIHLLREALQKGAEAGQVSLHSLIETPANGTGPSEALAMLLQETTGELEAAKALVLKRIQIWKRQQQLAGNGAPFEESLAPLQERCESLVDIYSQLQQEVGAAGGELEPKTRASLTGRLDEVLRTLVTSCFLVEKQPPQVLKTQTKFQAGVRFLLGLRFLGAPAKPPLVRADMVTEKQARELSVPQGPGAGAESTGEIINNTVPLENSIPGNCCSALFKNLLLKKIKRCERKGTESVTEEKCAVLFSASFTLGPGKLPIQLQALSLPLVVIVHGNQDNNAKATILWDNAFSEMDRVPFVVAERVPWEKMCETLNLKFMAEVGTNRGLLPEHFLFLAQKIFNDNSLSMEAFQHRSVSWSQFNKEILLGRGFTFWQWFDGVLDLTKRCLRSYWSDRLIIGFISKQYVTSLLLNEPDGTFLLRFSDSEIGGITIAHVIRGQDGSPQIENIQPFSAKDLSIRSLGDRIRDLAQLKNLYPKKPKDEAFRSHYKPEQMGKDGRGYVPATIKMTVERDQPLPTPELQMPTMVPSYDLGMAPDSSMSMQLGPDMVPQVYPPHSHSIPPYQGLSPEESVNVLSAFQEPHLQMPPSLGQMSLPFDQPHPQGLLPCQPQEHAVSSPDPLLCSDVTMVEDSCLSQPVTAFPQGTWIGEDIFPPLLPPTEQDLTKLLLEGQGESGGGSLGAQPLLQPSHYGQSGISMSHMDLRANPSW
Test: Immunoblotting (Western blot) analysis of STAT6 degradation efficiency of degraders in treated cells
Format: cell-based
Method in brief: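 About 1 million cells per point, grown in 10% FBS medium at 37 °C/5% CO2, were exposed to compound at the indicated concentrations and times, then lysed in RIPA buffer with protease and phosphatase inhibitors. Equal protein (20-40 μg) was resolved by SDS-PAGE, blotted to PVDF, and probed with anti-STAT5, anti-STAT6 and anti-GAPDH antibodies.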

[1] = MOLM-16 cells, class symbols, read-out: DC50 S6 MOLM-16
[2] = L1236 cells, read-out: DC50 S6 L1236

| SMILES | DC50 [1] | DC50 [2] | also measured |
| --- | --- | --- | --- |
| CC(C)(C)[C@H](NC(=O)c1cc2cc(C(F)(F)P(=O)(O)O)ccc2s1)C(=O)N1Cc2cc(OCC(=O)NCCCCCCCCC#Cc3cccc4c3C(=O)N(C3CCC(=O)NC3=O)C4=O)ccc2C[C@H]1C(=O)N1CCO[C@H](c2ccccc2)C1 (stereo partly drawn) [Compound 545, ((2-(((2S)-1-((3S)-7-(2-((10-(2-(2,6-dioxopiperidin-3-yl)-1,3-dioxoisoindolin-4-yl)dec-9-yn-1-yl)amino)-2-oxoethoxy)-3-((R)-2-phenylmorpholine-4-carbonyl)-3,4-dihydroisoquinolin-2(1H)-yl)-3,3-dimethyl-1-oxobutan-2-yl)carbamoyl)benzo[b]thiophen-5-yl)difluoromethyl)phosphonic acid] | > 10 µM | – | – |
| Cc1ncsc1-c1ccc([C@H](C)NC(=O)[C@@H]2C[C@@H](O)CN2C(=O)[C@@H](NC(=O)CCCCCCCCNC(=O)CO[C@H]2C[C@@H](C(=O)N3CCC[C@H](c4ccccc4)C3)N(C(=O)[C@@H](NC(=O)c3cc4cc(C(F)(F)P(=O)(O)O)ccc4s3)C(C)(C)C)C2)C(C)(C)C)cc1 [Compound 441, (difluoro(2-(((S)-1-((2S,4S)-4-(2-((9-(((S)-1-((2S,4R)-4-hydroxy-2-(((S)-1-(4-(4-methylthiazol-5-yl)phenyl)ethyl)carbamoyl)pyrrolidin-1-yl)-3,3-dimethyl-1-oxobutan-2-yl)amino)-9-oxononyl)amino)-2-oxoethoxy)-2-((R)-3-phenylpiperidine-1-carbonyl)pyrrolidin-1-yl)-3,3-dimethyl-1-oxobutan-2-yl)carbamoyl)benzo[b]thiophen-5-yl)methyl)phosphonic acid] | > 10 µM | > 10 µM | – |
| CC(C)(C)[C@H](NC(=O)c1cc2cc(C(F)(F)P(=O)(O)O)ccc2s1)C(=O)N1Cc2cc(OCC(=O)NCCCCCC#Cc3cccc4c3C(=O)N(C3CCC(=O)NC3=O)C4=O)ccc2C[C@H]1C(=O)N1CCO[C@H](c2ccccc2)C1 (stereo partly drawn) [Compound 543, ((2-(((2S)-1-((3S)-7-(2-((7-(2-(2,6-dioxopiperidin-3-yl)-1,3-dioxoisoindolin-4-yl)hept-6-yn-1-yl)amino)-2-oxoethoxy)-3-((R)-2-phenylmorpholine-4-carbonyl)-3,4-dihydroisoquinolin-2(1H)-yl)-3,3-dimethyl-1-oxobutan-2-yl)carbamoyl)benzo[b]thiophen-5-y)difluoromethyl)phosphonic acid] | > 10 µM | – | – |
| CC(C)(C)[C@H](NC(=O)c1cc2cc(C(F)(F)P(=O)(O)O)ccc2s1)C(=O)N1CCN(C(=O)CC(=O)NCCC#Cc2ccc3c(c2)C(=O)N(C2CCC(=O)NC2=O)C3=O)C[C@H]1C(=O)N1CCO[C@H](c2ccccc2)C1 (stereo partly drawn) [Compound 510, ((2-(((2S)-1-((2S)-4-(3-((4-(2-(2,6-dioxopiperidin-3-yl)-1,3-dioxoisoindolin-5-yl)but-3-yn-1-yl)amino)-3-oxopropanoyl)-2-((R)-2-phenylmorpholine-4-carbonyl)piperazin-1-yl)-3,3-dimethyl-1-oxobutan-2-yl)carbamoyl)benzo[b]thiophen-5-yl)difluoromethyl)phosphonic acid] | > 10 µM | – | – |
| Cc1ncsc1-c1ccc(CNC(=O)[C@@H]2C[C@@H](O)CN2C(=O)[C@@H](NC(=O)CCCCCCCCNC(=O)CO[C@@H]2C[C@@H](C(=O)N(C)c3ccc(Br)cc3)N(C(=O)[C@@H](NC(=O)c3cc4cc(C(F)(F)P(=O)(O)O)ccc4s3)C(C)(C)C)C2)C(C)(C)C)cc1 [Compound 420, ((2-(((S)-1-((2S,4R)-2-((4-bromophenyl)(methyl)carbamoyl)-4-(2-((9-(((S)-1-((2S,4R)-4-hydroxy-2-((4-(4-methylthiazol-5-yl)benzyl)carbamoyl)pyrrolidin-1-yl)-3,3-dimethyl-1-oxobutan-2-yl)amino)-9-oxononyl)amino)-2-oxoethoxy)pyrrolidin-1-yl)-3,3-dimethyl-1-oxobutan-2-yl)carbamoyl)benzo[b]thiophen-5-yl)difluoromethyl)phosphonic acid] | – | > 10 µM | DC50 (MB231 cells, read-out: DC50 S6 MB231): > 10 µM |
| CC(C)(C)[C@H](NC(=O)c1cc2cc(C(F)(F)P(=O)(O)O)ccc2s1)C(=O)N1CCN(C(=O)CC(=O)NCCCCCC#Cc2cccc3c2C(=O)N(C2CCC(=O)NC2=O)C3=O)C[C@H]1C(=O)N1CCC[C@H](c2ccccc2)C1 (stereo partly drawn) [Compound 529, ((2-(((2S)-1-((2S)-4-(3-((7-(2-(2,6-dioxopiperidin-3-yl)-1,3-dioxoisoindolin-4-yl)hept-6-yn-1-yl)amino)-3-oxopropanoyl)-2-((R)-3-phenylpiperidine-1-carbonyl)piperazin-1-yl)-3,3-dimethyl-1-oxobutan-2-yl)carbamoyl)benzo[b]thiophen-5-yl)difluoromethyl)phosphonic acid] | > 10 µM | – | – |
| Cc1ncsc1-c1ccc([C@H](C)NC(=O)[C@@H]2C[C@@H](O)CN2C(=O)[C@@H](NC(=O)CCCNC(=O)CC(=O)N2CCN(C(=O)[C@@H](NC(=O)c3cc4cc(C(F)(F)P(=O)(O)O)ccc4s3)C(C)(C)C)[C@H](C(=O)N3CCC[C@H](c4ccccc4)C3)C2)C(C)(C)C)cc1 [Compound 454, (difluoro(2-(((S)-1-((S)-4-(3-((4-(((S)-1-((2S,4R)-4-hydroxy-2-(((S)-1-(4-(4-methylthiazol-5-yl)phenyl)ethyl)carbamoyl)pyrrolidin-1-yl)-3,3-dimethyl-1-oxobutan-2-yl)amino)-4-oxobutyl)amino)-3-oxopropanoyl)-2-((R)-3-phenylpiperidine-1-carbonyl)piperazin-1-yl)-3,3-dimethyl-1-oxobutan-2-yl)carbamoyl)benzo[b]thiophen-5-yl)methyl)phosphonic acid] | > 10 µM | > 10 µM | – |
| CC(C)(C)[C@H](NC(=O)c1cc2cc(C(F)(F)P(=O)(O)O)ccc2s1)C(=O)N1C[C@@H](OCCCCCCC#Cc2cccc3c2CN(C2CCC(=O)NC2=O)C3=O)C[C@H]1C(=O)N1CCOC(c2cccs2)C1 (stereo partly drawn) [Compound 611] | – | – | DC50 (MOLM-16 cells, numeric bound, read-out: DC50 S6 MOLM-16): > 0.3 µM |
| CC(C)(C)[C@H](NC(=O)c1cc2cc(C(F)(F)P(=O)(O)O)ccc2s1)C(=O)N1Cc2cc(OCC(=O)NCC#Cc3ccc4c(c3)C(=O)N(C3CCC(=O)NC3=O)C4=O)ccc2C[C@H]1C(=O)N1CCO[C@H](c2ccccc2)C1 (stereo partly drawn) [Compound 536, ((2-(((2S)-1-((3S)-7-(2-((3-(2-(2,6-dioxopiperidin-3-yl)-1,3-dioxoisoindolin-5-yl)prop-2-yn-1-yl)amino)-2-oxoethoxy)-3-((R)-2-phenylmorpholine-4-carbonyl)-3,4-dihydroisoquinolin-2(1H)-yl)-3,3-dimethyl-1-oxobutan-2-yl)carbamoyl)benzo[b]thiophen-5-yl)difluoromethyl)phosphonic acid] | 1 to 10 µM | – | – |
| CC(C)(C)[C@H](NC(=O)c1cc2cc(C(F)(F)P(=O)(O)O)ccc2s1)C(=O)N1Cc2cc(OCC(=O)NCCCC#Cc3cccc4c3C(=O)N(C3CCC(=O)NC3=O)C4=O)ccc2C[C@H]1C(=O)N1CCC[C@H](c2ccccc2)C1 (stereo partly drawn) [Compound 553, ((2-(((2S)-1-((3S)-7-(2-((5-(2-(2,6-dioxopiperidin-3-yl)-1,3-dioxoisoindolin-4-yl)pent-4-yn-1-yl)amino)-2-oxoethoxy)-3-((R)-3-phenylpiperidine-1-carbonyl)-3,4-dihydroisoquinolin-2(1H)-yl)-3,3-dimethyl-1-oxobutan-2-yl)carbamoyl)benzo[b]thiophen-5-yl)difluoromethyl)phosphonic acid] | > 10 µM | – | – |
| Cc1ncsc1-c1ccc([C@H](C)NC(=O)[C@@H]2C[C@@H](O)CN2C(=O)[C@@H](NC(=O)CCNC(=O)CO[C@H]2C[C@@H](C(=O)N3CCO[C@H](c4ccccc4)C3)N(C(=O)[C@@H](NC(=O)c3cc4cc(C(F)(F)P(=O)(O)O)ccc4s3)C(C)(C)C)C2)C(C)(C)C)cc1 [Compound 426, (difluoro(2-(((S)-1-((2S,4S)-4-(2-((3-(((S)-1-((2S,4R)-4-hydroxy-2-(((S)-1-(4-(4-methylthiazol-5-yl)phenyl)ethyl)carbamoyl)pyrrolidin-1-yl)-3,3-dimethyl-1-oxobutan-2-yl)amino)-3-oxopropyl)amino)-2-oxoethoxy)-2-((R)-2-phenylmorpholine-4-carbonyl)pyrrolidin-1-yl)-3,3-dimethyl-1-oxobutan-2-yl)carbamoyl)benzo[b]thiophen-5-yl)methyl)phosphonic acid] | > 10 µM | > 10 µM | – |
